# Measurements as given in US6030961A, “Oxyalkylene phosphate compounds and uses thereof” (Bar-Ilan Research & Development Co., Ltd., priority 1997, dated 2000).
# pIC50: −log10 of the molar value. “Also recorded” adds a separate entry of the source. Like-named read-outs stand apart in the source and are kept apart here.
# Key:
# [1] = tested on: SMS-KCN; assay: cells; conditions: Homo sapiens
# Procedure: (§1) The cell lines listed in Table 2 were grown to 70-80% confluence in complete medium (RPMI 1640 containing 10% fetal calf serum (FCS), 100 IU penicillin, 100 μg/mL streptomycin and 2 mM L-glutamine). Cells were harvested, washed in complete medium and counted. Cell viability was determined by trypan blue exclusion. The cells were placed into soft agar (0.12% in media) and plated at 5,000 viable cells per well onto an agarose underlayer (0.4%) in 24-well plates. After overnight culture, AB or BODP was added at the indicated concentration. Control cells received media alone. As a control for cell death, cells were treated with a superlethal dose of 10 μg/ml of cisplatin. The dosage of AB or BODP which inhibited fifty percent or ninety percent of cell proliferation (IC50 or IC90 respectively) was calculated using the Chou Analysis' Median Effective Dose equation.
# (§2) Clonogenicity is determined as the percentage of clones in treated cultures relative to clones in mediumun-treated control cultures.
# [2] = tested on: NGP; assay: Clonogenicity (soft agar) of established tumor cell lines, NGP
# Procedure: as §1, §2
# [3] = tested on: HL-60 cells
# Procedure: The level of CD11b was measured on HL-60 cells by flow cytometry using a monoclonal antibody (MAb) against CD11b in a standard indirect immunofluorescence assay. Cells were cultured for three or six days with the indicated concentration of BODP. Cultured cells were collected by centrifugation, resuspended at 10^6 cells per 20 μl RPMI+10% FCS and incubated with MAb for 30 minutes at 4° C. The cells were washed twice in cold PBS+10% FCS and incubated with a 1:20 dilution of FITC-conjugated F(ab')^2 fragment of rabbit anti-mouse IgG for 20-30 minutes at 4° C. in the dark. After washing the cells twice in cold PBS+10% FCS, flow cytometry was performed on a FACSstar (Becton Dickson) using an argon ion laser adjusted to excitation wavelength of 488 nm on samples containing 10^4 cells.
# [4] = tested on: pancreatic cell line, BxPC-3; assay: Colony-forming assay, 24 hour exposure; type: cell-based, human; conditions: 24 hour treatment
# Procedure: The effect of 24 hour exposure to BODP or AB was determined by a colony-forming assay on the pancreatic cell line, BxPC-3, which is a primary adenocarcinoma (ACTTnr:CRL-1687). Freshly trypsinized cells were plated at 500 cells/dish in 60 mm^2 tissue culture dishes with the indicated concentration of each compound and incubated for 24 hours at 37° C. in 5% CO2 /air atmosphere. The cultures were washed with PBS, fresh medium was added, and the cultures were incubated for 7-12 days to allow the formation of colonies. Colonies were fixed with methanol, stained with Giemsa and counted. All incubations were performed in triplicate.
# [5] = tested on: K562 cells; assay: Hb-containing K562 cells by benzidine staining; type: cell-based; conditions: for extent of differentiation, dose dependence: hemoglobin accumulation, K562
# [6] = tested on: β-thalassemia and sickle-cell anemia patients; conditions: cited from earlier work
# [7] = tested on: human tumor cell lines; assay: Clonogenicity of established tumor cell lines, summary over cell lines
# Procedure: as §1, §2
# [8] = U.S. Pat. No. 5,200,553; Nudelman et al.; cited from earlier work
# [9] = tested on: cancer patients; conditions: cited from earlier work
# [10] = tested on: nuclear deacetylase(s); conditions: cited from earlier work
# [11] = tested on: HL-60 promyelocytic leukemia; conditions: cited from earlier work
# [12] = tested on: expression of transfected DNA; conditions: cited from earlier work
# [13] = tested on: B16 melanoma; conditions: cited from earlier work
# [14] = cited from earlier work
# [15] = tested on: neoplastic cells; conditions: in vitro; cited from earlier work
# [16] = tested on: IMR-32; assay: Clonogenicity (soft agar) of established tumor cell lines, IMR-32
# Procedure: as §1, §2
# [17] = tested on: SK-N-MC; assay: Clonogenicity (soft agar) of established tumor cell lines, SK-N-MC
# Procedure: as §1, §2
# [18] = tested on: NBAS-5; assay: Clonogenicity (soft agar) of established tumor cell lines, NBAS-5
# Procedure: as §1, §2
# [19] = tested on: SMS-KCN
# Procedure: as §1, §2
# [20] = tested on: LA1-5S; assay: Clonogenicity (soft agar) of established tumor cell lines, LA1-5S
# Procedure: as §1, §2
# [21] = tested on: SMS-KAN; assay: Clonogenicity (soft agar) of established tumor cell lines, SMS-KAN
# Procedure: as §1, §2
# [22] = tested on: K562 cells; assay: Total Hb content of K562 cultures by HPLC; type: cell-based; conditions: molar basis vs AB; FIG. 5
# Procedure: (2) Quantitative measurement of fetal hemoglobin (HbF) in K562 culture or human erythroid cultures was determined by ion-exchange high pressure liquid chromatography (HPLC) as described by Fibach et al., Blood 81:1630-1635, 1993.
# K562 cells: K562 is an erythroblast cell line (obtained from the ATCC, Rockville, Md.) that develops some properties of erythroid, megakaryocyte or monocyte cells, depending on the specific stimulus, when induced by different chemicals. K562 cells were grown in RPMI medium with 10% FCS, supplemented with 2 mM glutamine. Cells were incubated at 37° C. in a humidified, 5% CO2 incubator.
# [23] = tested on: SK-N-SH; assay: Clonogenicity (soft agar) of established tumor cell lines, SK-N-SH
# Procedure: as §1, §2
# [24] = tested on: NBL-W-N; assay: Clonogenicity (soft agar) of established tumor cell lines, NBL-W-N
# Procedure: as §1, §2
# [25] = tested on: human colon carcinoma, leukemia and retinoblastoma cell lines; conditions: in vitro; cited from earlier work
# [26] = tested on: reporter gene in primary and immortalized cell lines; conditions: cited from earlier work
compound,measurement,setting,value
"CCCC(=O)O [AB, arginine butyrate, reference compound]",pIC50,[1],2.73
same,pIC50,[2]; Homo sapiens,3.71
same,IC90,[2]; Homo sapiens,1620 µM
same,increase in CD11b at the same concentration,[3]; 40 μM,no increase in CD11b
same,expression of CD11b,[3]; 800 μM,12%
same,growth inhibition at 100 μM,[4]; 100 μM,did not cause complete growth inhibition
same,"extent of differentiation, dose dependence",[5],directly related to the drug dose
same,clinical efficacy,[6]; clinical trials,moderate efficacy
same,side effects,[6]; β-thalassemia and sickle-cell anemia patients,"hypokalemia, headache, nausea and vomiting"
same,"inhibition of cell proliferation, dose dependence",[7],inhibit cell proliferation in a dose-dependent manner
"CCCC(=O)OCOC(=O)C(C)(C)C [AN-9, pivaloyloxymethyl butyrate]",activity among butyric acid prodrugs,[8],most active
"CCCC(=O)O [BA, Butyric acid]",clinical efficacy in cancer patients,[9]; BA and BA salts,minimal or transient efficacy
same,odor in patients,[9]; patients receiving BA,unpleasant odor
same,effect on nuclear deacetylase(s) and histone acetylation,[10],"inhibition of nuclear deacetylase(s), resulting in hyperacetylation of histones H3 and H4"
same,expression of c-myc,[11],decrease
same,expression of transfected DNA,[12],increase the expression of transfected DNA
same,expression of c-myc and H-ras oncogenes,[13],decrease in the expression of c-myc and H-ras oncogenes
same,half-life in vivo,[14],very short half-lives in vivo
same,metabolism,[14]; in vivo,metabolized rapidly
same,differentiating and antiproliferative activity,[15],potent differentiating and antiproliferative agent
"CCCC(=O)OCOP(=O)(OCC)OCC [BODP, butyroyloxymethyl diethyl phosphate]",pIC50,[16],4.46
same,IC90,[16],88 µM
same,Ratio AB/BODP IC50,[16],25.2
same,Ratio AB/BODP IC90,[16],40.5
same,pIC50,[17],4.43
same,IC90,[17],145 µM
same,Ratio AB/BODP IC50,[17],5.8
same,Ratio AB/BODP IC90,[17],9.1
same,pIC50,[18],4.68
same,IC90,[18],71 µM
same,Ratio AB/BODP IC50,[18],42
same,Ratio AB/BODP IC90,[18],183.5
same,pIC50,[19],4.27
same,Ratio AB/BODP IC50,[19],34.7
same,pIC50,[2],4.77
same,IC90,[2],49 µM
same,Ratio AB/BODP IC50,[2],11.6
same,Ratio AB/BODP IC90,[2],33.1
same,increase of CD11b expression over untreated cells,"[3]; 40 μM, four days, 5760 min",7 fold
same,"differentiation induction, in words",[3]; BODP vs AB,more active differentiation inducer compared to AB
same,pIC50,[20],4.42
same,IC90,[20],105 µM
same,Ratio AB/BODP IC50,[20],42.8
same,Ratio AB/BODP IC90,[20],25.5
same,pIC50,[21],4.35
same,IC90,[21],128 µM
same,Ratio AB/BODP IC50,[21],25.3
same,Ratio AB/BODP IC90,[21],16.2
same,total Hb content of the cultures,[22],higher activity in inducing erythroid differentiation
same,concentration causing complete inhibition,[4],above 50 μM
same,"growth inhibition, dose dependence",[4],dose-ependent growth inhibition
same,"extent of differentiation, dose dependence",[5],directly related to the drug dose
same,proportion of Hb-containing cells per total cell population,"[5]; molar basis vs AB, 5 days exposure, FIG. 4",higher proportion of Hb-containing cells
same,pIC50,[23],4.82
same,IC90,[23],44 µM
same,Ratio AB/BODP IC50,[23],66.5
same,Ratio AB/BODP IC90,[23],77.2
same,pIC50,[24],4.42
same,IC90,[24],96 µM
same,Ratio AB/BODP IC50,[24],12.9
same,Ratio AB/BODP IC90,[24],32
same,"inhibition of cell proliferation, dose dependence",[7],inhibit cell proliferation in a dose-dependent manner
same,"growth inhibition / clonogenicity inhibition potency, in words",[7]; BODP vs AB,more potent growth inhibitor than AB; also recorded: significantly more potent tumor cell clonogenicity inhibitor than AB
same,sensitivity of the cells to BODP compared with AB,[7]; BODP vs AB,at least an order of magnitude more sensitive
same,"ratio of IC50 AB:IC50 BODP, median value",[7]; median over cell lines,25.2
same,"ratio of IC90 AB:IC90 BODP, median value",[7]; median over cell lines,28.75
"CCCC(=O)[O-].[Na+] [SB, sodium butyrate]",apoptosis,[25],produce apoptosis in vitro
CCCC(=O)OCC(COC(=O)CCC)OC(=O)CCC [Tributyrin],expression of a reporter gene,[26],enhance the expression of a reporter gene
